Test results: publication PMC6591251, “Discovery of potent necroptosis inhibitors targeting RIPK1 kinase activity for the treatment of inflammatory disorder and cancer metastasis” (Cell Death & Disease, 2019)

Legend:
Test in all cases: RBC kinase panel
Assay type in all cases: biochemical
Settings in all cases: ATP 10 μM, Data1, Data2
[1] = target: T1, NLK (Homo sapiens, UniProt Q9UBE8)
T1 construct: purchased Reaction Biology Corporation
How it was run: (§1)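 Kinases from a 369-member human panel were incubated with 1 μM compound under 10 μM ATP, and every assay was done in duplicate.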

[2] = target: T2, ASK1/MAP3K5 (Homo sapiens, UniProt Q99683)
T2 construct: purchased Reaction Biology Corporation
How it was run: as §1

[3] = target: T3, TIE2/TEK (Homo sapiens, UniProt Q02763)
T3 construct: purchased Reaction Biology Corporation
How it was run: as §1

[4] = target: T4, CK1d (Homo sapiens, UniProt P48730)
T4 construct: purchased Reaction Biology Corporation
How it was run: as §1

[5] = target: T5, CAMK2d (Homo sapiens, UniProt Q13557)
T5 construct: purchased Reaction Biology Corporation
How it was run: as §1

[6] = target: T6, CK1g2 (Homo sapiens, UniProt P78368)
T6 construct: purchased Reaction Biology Corporation
T6 sequence (P78368 whole entry): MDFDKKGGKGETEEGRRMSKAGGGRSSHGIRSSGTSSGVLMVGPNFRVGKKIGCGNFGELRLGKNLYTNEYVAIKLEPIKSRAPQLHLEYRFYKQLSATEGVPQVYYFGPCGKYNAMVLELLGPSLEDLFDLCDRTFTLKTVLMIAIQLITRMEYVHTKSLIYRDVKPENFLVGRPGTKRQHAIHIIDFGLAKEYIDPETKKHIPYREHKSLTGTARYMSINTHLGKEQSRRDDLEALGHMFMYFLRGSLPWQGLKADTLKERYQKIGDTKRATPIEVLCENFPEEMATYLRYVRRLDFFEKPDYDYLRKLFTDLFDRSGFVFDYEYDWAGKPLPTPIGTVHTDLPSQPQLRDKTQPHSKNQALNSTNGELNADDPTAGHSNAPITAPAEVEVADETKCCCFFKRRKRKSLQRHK
How it was run: as §1

[7] = target: T7, HIPK4 (Homo sapiens, UniProt Q8NE63)
T7 construct: purchased Reaction Biology Corporation
How it was run: as §1

[8] = target: T8, TLK2 (Homo sapiens, UniProt Q86UE8)
T8 construct: purchased Reaction Biology Corporation
T8 sequence (Q86UE8 whole entry): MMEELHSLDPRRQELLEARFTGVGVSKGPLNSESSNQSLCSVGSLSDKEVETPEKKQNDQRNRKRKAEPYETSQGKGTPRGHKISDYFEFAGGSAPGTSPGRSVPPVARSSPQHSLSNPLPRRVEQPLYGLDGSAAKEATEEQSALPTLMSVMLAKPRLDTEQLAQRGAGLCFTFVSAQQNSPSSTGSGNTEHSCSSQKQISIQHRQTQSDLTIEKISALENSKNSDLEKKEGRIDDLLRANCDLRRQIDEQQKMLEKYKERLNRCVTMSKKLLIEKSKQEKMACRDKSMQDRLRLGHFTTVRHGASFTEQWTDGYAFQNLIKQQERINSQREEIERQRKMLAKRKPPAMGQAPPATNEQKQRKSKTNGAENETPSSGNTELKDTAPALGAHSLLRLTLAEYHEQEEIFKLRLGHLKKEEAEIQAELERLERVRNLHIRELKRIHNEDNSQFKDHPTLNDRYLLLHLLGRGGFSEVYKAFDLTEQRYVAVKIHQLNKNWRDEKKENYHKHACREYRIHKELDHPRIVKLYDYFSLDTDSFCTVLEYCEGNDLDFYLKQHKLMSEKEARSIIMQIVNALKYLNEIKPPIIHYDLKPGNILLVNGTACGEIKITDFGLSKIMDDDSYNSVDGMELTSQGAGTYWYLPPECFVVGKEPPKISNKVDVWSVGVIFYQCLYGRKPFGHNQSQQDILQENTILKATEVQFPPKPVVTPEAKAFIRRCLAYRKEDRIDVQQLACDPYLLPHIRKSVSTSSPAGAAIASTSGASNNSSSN
How it was run: as §1

[9] = target: T9, CLK2 (Homo sapiens, UniProt P49760)
T9 construct: purchased Reaction Biology Corporation
How it was run: as §1

[10] = target: T10, JNK2 (Homo sapiens, UniProt P45984)
T10 construct: purchased Reaction Biology Corporation
How it was run: as §1

[11] = target: T11, FGFR1 (Homo sapiens, UniProt P11362)
T11 construct: purchased Reaction Biology Corporation
T11 sequence (P11362 22-822): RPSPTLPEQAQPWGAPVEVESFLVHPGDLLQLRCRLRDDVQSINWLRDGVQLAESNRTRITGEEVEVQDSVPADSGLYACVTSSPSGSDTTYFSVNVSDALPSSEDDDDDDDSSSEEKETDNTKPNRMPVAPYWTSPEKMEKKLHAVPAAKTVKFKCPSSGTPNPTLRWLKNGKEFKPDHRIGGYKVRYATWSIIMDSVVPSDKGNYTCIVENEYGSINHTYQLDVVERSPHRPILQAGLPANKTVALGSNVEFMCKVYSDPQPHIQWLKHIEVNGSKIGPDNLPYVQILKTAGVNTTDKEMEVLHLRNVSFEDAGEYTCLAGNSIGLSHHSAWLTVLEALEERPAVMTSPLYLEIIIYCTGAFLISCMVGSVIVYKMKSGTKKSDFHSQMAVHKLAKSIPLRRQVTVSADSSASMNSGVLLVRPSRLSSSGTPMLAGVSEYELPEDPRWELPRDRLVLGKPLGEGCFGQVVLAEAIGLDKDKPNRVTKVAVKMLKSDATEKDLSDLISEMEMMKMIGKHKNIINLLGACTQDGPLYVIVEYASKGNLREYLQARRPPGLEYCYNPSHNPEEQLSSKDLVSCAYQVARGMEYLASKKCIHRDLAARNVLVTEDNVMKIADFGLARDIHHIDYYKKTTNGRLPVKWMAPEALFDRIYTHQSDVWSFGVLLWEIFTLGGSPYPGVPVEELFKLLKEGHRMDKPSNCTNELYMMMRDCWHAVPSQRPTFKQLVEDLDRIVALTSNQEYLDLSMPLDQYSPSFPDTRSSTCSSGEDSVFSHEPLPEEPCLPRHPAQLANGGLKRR
How it was run: as §1

[12] = target: T12, STK32C/YANK3 (Homo sapiens, UniProt Q86UX6)
T12 construct: purchased Reaction Biology Corporation
How it was run: as §1

[13] = target: T13, PDGFRb (Homo sapiens, UniProt P09619)
T13 construct: purchased Reaction Biology Corporation
How it was run: as §1

[14] = target: T14, CHK2 (Homo sapiens, UniProt O96017)
T14 construct: purchased Reaction Biology Corporation
T14 sequence (O96017 whole entry): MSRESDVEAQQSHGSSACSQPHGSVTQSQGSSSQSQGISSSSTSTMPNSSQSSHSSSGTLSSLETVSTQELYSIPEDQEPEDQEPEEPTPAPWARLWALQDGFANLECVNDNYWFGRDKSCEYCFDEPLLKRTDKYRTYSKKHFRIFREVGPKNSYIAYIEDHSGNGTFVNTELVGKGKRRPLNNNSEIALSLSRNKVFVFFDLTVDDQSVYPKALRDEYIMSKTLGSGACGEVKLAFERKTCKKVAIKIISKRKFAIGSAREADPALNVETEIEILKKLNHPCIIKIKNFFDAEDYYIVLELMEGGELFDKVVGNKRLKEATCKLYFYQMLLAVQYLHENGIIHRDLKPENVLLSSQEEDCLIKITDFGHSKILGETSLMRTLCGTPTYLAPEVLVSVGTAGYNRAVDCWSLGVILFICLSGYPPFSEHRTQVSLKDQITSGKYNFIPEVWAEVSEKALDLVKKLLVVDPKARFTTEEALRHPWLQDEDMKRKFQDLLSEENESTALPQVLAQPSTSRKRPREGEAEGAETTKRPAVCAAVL
How it was run: as §1

[15] = target: T15, PKCnu/PRKD3 (Homo sapiens, UniProt O94806)
T15 construct: purchased Reaction Biology Corporation
How it was run: as §1

[16] = target: T16, GRK5 (Homo sapiens, UniProt P34947)
T16 construct: purchased Reaction Biology Corporation
How it was run: as §1

[17] = target: T17, TEC (Homo sapiens, UniProt P42680)
T17 construct: purchased Reaction Biology Corporation
How it was run: as §1

[18] = target: T18, c-MER (Homo sapiens, UniProt Q12866)
T18 construct: purchased Reaction Biology Corporation
How it was run: as §1

[19] = target: T19, MST3/STK24 (Homo sapiens, UniProt Q9Y6E0)
T19 construct: purchased Reaction Biology Corporation
How it was run: as §1

[20] = target: T20, RAF1 (Homo sapiens, UniProt P04049)
T20 construct: purchased Reaction Biology Corporation
T20 sequence (P04049 whole entry): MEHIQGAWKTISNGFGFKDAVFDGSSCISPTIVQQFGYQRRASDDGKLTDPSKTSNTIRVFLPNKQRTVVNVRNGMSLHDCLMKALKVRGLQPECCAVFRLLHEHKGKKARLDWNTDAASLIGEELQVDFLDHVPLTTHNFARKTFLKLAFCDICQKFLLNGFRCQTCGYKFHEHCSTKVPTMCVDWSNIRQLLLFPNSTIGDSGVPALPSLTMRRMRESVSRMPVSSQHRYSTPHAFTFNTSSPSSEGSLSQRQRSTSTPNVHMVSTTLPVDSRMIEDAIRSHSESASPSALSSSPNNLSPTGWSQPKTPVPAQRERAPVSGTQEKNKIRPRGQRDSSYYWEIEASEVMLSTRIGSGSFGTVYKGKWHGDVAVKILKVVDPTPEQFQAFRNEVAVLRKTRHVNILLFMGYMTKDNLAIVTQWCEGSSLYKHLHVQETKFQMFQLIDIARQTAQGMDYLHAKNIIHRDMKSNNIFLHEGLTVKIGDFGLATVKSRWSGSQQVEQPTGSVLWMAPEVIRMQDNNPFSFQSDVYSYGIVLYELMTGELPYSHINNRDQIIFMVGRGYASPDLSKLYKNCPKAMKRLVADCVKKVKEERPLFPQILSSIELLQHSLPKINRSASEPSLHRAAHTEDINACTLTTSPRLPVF
How it was run: as §1

[21] = target: T21, LIMK1 (Homo sapiens, UniProt P53667)
T21 construct: purchased Reaction Biology Corporation
T21 sequence (P53667 whole entry): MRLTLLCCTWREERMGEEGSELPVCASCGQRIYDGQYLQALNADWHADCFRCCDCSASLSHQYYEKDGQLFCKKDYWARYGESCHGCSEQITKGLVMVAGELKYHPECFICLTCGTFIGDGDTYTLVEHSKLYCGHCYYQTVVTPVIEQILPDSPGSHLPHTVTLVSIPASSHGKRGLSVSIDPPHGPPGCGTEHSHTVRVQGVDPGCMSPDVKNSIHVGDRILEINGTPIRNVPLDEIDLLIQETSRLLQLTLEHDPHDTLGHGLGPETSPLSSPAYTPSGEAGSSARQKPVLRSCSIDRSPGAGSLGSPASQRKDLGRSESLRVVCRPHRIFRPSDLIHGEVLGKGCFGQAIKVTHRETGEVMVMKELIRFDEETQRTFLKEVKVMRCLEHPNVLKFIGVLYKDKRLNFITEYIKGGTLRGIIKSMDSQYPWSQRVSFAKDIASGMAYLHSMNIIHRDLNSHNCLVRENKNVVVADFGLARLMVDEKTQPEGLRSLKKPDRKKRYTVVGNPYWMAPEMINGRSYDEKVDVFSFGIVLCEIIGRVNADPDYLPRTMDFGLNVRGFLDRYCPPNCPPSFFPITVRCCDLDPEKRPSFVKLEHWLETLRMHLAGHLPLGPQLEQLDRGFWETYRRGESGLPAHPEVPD
How it was run: as §1

[22] = target: T22, MLK2/MAP3K10 (Homo sapiens, UniProt Q02779)
T22 construct: purchased Reaction Biology Corporation
How it was run: as §1

[23] = target: T23, EPHA2 (Homo sapiens, UniProt P29317)
T23 construct: purchased Reaction Biology Corporation
How it was run: as §1

[24] = target: T24, SBK1 (Homo sapiens, UniProt Q52WX2)
T24 construct: purchased Reaction Biology Corporation
How it was run: as §1

[25] = target: T25, MINK/MINK1 (Homo sapiens, UniProt Q8N4C8)
T25 construct: purchased Reaction Biology Corporation
How it was run: as §1

[26] = target: T26, MELK (Homo sapiens, UniProt Q14680)
T26 construct: purchased Reaction Biology Corporation
How it was run: as §1

[27] = target: T27, TNK1 (Homo sapiens, UniProt Q13470)
T27 construct: purchased Reaction Biology Corporation
How it was run: as §1

[28] = target: T28, CK2a2 (Homo sapiens, UniProt P19784)
T28 construct: purchased Reaction Biology Corporation
T28 sequence (P19784 whole entry): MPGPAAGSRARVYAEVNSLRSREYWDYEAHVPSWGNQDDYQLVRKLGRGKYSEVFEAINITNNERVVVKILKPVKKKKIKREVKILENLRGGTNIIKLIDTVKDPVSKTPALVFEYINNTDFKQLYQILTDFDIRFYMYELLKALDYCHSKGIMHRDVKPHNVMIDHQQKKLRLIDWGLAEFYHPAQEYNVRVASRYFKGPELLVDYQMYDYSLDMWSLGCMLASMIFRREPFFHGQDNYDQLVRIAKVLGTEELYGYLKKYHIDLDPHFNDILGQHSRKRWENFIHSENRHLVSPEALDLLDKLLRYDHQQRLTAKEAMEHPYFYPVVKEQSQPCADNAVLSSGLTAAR
How it was run: as §1

[29] = target: T29, PKA (Homo sapiens, UniProt P17612)
T29 construct: purchased Reaction Biology Corporation
How it was run: as §1

[30] = target: T30, FGR (Homo sapiens, UniProt P09769)
T30 construct: purchased Reaction Biology Corporation
How it was run: as §1

[31] = target: T31, FER (Homo sapiens, UniProt P16591)
T31 construct: purchased Reaction Biology Corporation
How it was run: as §1

[32] = target: T32, MEK3 (Homo sapiens, UniProt P46734)
T32 construct: purchased Reaction Biology Corporation
How it was run: as §1

T1 sequence (Q9UBE8 whole entry): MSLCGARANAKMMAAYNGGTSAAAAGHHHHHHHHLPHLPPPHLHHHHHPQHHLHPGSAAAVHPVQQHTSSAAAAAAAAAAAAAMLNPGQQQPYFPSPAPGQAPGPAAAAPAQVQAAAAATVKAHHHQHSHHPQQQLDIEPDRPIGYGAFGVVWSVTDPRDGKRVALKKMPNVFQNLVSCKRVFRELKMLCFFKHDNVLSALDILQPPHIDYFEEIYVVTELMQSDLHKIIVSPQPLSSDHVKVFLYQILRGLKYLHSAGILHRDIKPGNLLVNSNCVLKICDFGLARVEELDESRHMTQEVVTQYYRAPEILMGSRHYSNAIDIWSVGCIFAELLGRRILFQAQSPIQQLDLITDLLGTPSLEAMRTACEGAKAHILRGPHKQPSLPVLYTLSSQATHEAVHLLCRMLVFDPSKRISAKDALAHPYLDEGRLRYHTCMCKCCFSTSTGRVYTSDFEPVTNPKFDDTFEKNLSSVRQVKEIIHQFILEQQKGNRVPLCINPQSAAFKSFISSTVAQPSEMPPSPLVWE

CC(=O)Nc1nc2ccc(-c3cnc(C)c(NC(=O)OC4CCCCC4)c3)cc2s1 [PK68, cyclohexyl (5-(2-acetamidobenzo[d]thiazol-6-yl)-2-methylpyridin-3-yl)carbamate]
Activity% ([1]; 1 μM): 98.89%
activity at 1 µM [1]: 103%
Activity% ([2]; 1 μM): 93.46%
activity at 1 µM [2]: 95.2%
Activity% ([3]; 1 μM): 82.66%
activity at 1 µM [3]: 83.4%
Activity% ([4]; 1 μM): 103.42%
activity at 1 µM [4]: 105%
Activity% ([5]; 1 μM): 98.13%
activity at 1 µM [5]: 98.9%
Activity% ([6]; 1 μM): 96.19%
activity at 1 µM [6]: 97.8%
Activity% ([7]; 1 μM): 72.16%
activity at 1 µM [7]: 74.6%
Activity% ([8]; 1 μM): 96.86%
activity at 1 µM [8]: 98.1%
Activity% ([9]; 1 μM): 77.67%
activity at 1 µM [9]: 80.5%
Activity% ([10]; 1 μM): 101.11%
activity at 1 µM [10]: 104%
Activity% ([11]; 1 μM): 104.83%
activity at 1 µM [11]: 105%
Activity% ([12]; 1 μM): 100.29%
activity at 1 µM [12]: 101%
Activity% ([13]; 1 μM): 75.13%
activity at 1 µM [13]: 76.7%
Activity% ([14]; 1 μM): 98.81%
activity at 1 µM [14]: 99.1%
Activity% ([15]; 1 μM): 101.06%
activity at 1 µM [15]: 102%
Activity% ([16]; 1 μM): 103.56%
activity at 1 µM [16]: 104%
Activity% ([17]; 1 μM): 97.93%
activity at 1 µM [17]: 99%
Activity% ([18]; 1 μM): 84.20%
activity at 1 µM [18]: 86%
Activity% ([19]; 1 μM): 100.31%
activity at 1 µM [19]: 102%
Activity% ([20]; 1 μM): 75.37%
activity at 1 µM [20]: 76.1%
Activity% ([21]; 1 μM): 63.37%
activity at 1 µM [21]: 63.4%
Activity% ([22]; 1 μM): 55.63%
activity at 1 µM [22]: 57%
Activity% ([23]; 1 μM): 94.92%
activity at 1 µM [23]: 95.2%
Activity% ([24]; 1 μM): 102.75%
activity at 1 µM [24]: 104%
Activity% ([25]; 1 μM): 88.92%
activity at 1 µM [25]: 90.2%
Activity% ([26]; 1 μM): 100.40%
activity at 1 µM [26]: 102%
Activity% ([27]; 1 μM): 86.66%
activity at 1 µM [27]: 87.9%
Activity% ([28]; 1 μM): 100.37%
activity at 1 µM [28]: 101%
Activity% ([29]; 1 μM): 105.35%
activity at 1 µM [29]: 105%
Activity% ([30]; 1 μM): 82.32%
activity at 1 µM [30]: 87.2%
Activity% ([31]; 1 μM): 100.70%
activity at 1 µM [31]: 102%
Activity% ([32]; 1 μM): 99.61%
activity at 1 µM [32]: 99.7%
